In one assay the test system is STAT5. The assay is described as follows: STAT5 DNA binding by EMSA in UT7 nuclear extracts. The format is cell-based. Conditions: combined lenalidomide and EPO treatment. (A gel shift assay detects complexes by their altered migration in electrophoresis.)
For another assay, the system named is c-Src. The assay is described as follows: c-Src activation (p-Src416, p-Src527, Bcl-XL) in UT7 cells by Western immunoblot. It is filed as cell-based. The source says: FIGS. 5A and 5B show lenalidomide potentiates c-Src activation. […] Cells were lysed and assayed for β-actin (Sigma), or Src, p-Src416, p-Src 527 and Bcl-XL (Cell Signaling) by Western immunoblot. Protein loading was normalized to β-actin. Relative Src activation in FIG. 5B represents the ratio of p-Src416 (activation site phosphorylation) to p-Src527 (C-terminal inhibitory p-tyrosine).
To confirm that EPO-R signal potentiation by lenalidomide is associated with activation of Src and Lyn kinases, Src activation was evaluated using phospho-tyrosine specific antibodies that recognize either the activation loop tyrosine (Tyr416) or the C-terminal inhibitory tyrosine (Tyr527) of c-Src. Lenalidomide alone increased phosphorylation of Tyr416 by 50% compared to the vehicle treated control [FIG. 5].
(In general: In western blotting, separated proteins are transferred to a membrane and probed.)

Another assay deals with Csk. The assay is described as follows: Csk and phospho-Lyn507 in UT7 cells by Western immunoblot. The note with it: lenalidomide alone or combined with EPO. The format is cell-based. How it is done:
Serum starved UT7 cells were treated with either vehicle alone (control), CC5013 (2 hours), EPO (30 minutes), or CC5013 followed by addition of EPO at the concentrations indicated. Cells were lysed and assayed for β-actin (Sigma), phospho-Lyn507, total Lyn and Csk (Cell Signaling) by Western immunoblot as described previously. Protein loading was normalized to β-actin, and immunoblot signals of phosphorylated Lyn were normalized to total Lyn and actin by band densitometry.
The Lyn/Src signal response is inhibited through both Csk phosphorylation of the C-terminal tyrosine residue enabled by SFK phosphorylation of the Csk-binding protein (Csk/Pag), and by the action of the CD45 PTP that dephosphorylatse the SFK activation loop tyrosine. There were minor changes in phosphorylation of the C-terminal tyrosine of Src and Lyn kinases despite significant increases in phosphorylation of the Src activation loop tyrosine [FIGS. 5 and 6]. A minor reduction in C-terminal tyrosyl phosphorylation relative to total Lyn was associated with a decrease in total Csk that was apparent with treatment with either lenalidomide alone or when combined with EPO [FIG. 6].

The subject of a further assay is AML-EH5q cells. The assay is described as follows: Apoptosis by Annexin-V/PI flow cytometry in AML-EH5q cells. Conditions: AML-EH5q (5q-deleted) cells, 24 hours. It is filed as cell-based. How it is done: AML-EH5q (FIG. 8A) and U937 (FIG. 8B) cells were exposed to lenalidomide, thalidomide or vehicle at the concentrations indicated for 24 hours in IMDM and 20% FBS and apoptosis assessed by flow cytometry using Annexin-V/PI staining. Briefly, cells are incubated for 20 minutes at room temperature in 50 mM HEPES (pH 7.4) and 150 mM NaCl containing 2 mM calcium chloride with a mixture of 1 μg/mLAnnexin V-FITC (Boehringer Mannhein, Mannhein, Germany) and 2.5 μg/mL propidium iodide (PI; Sigma-Aldrich) before analysis.
The hematologic effects of lenalidomide could derive from dual effects that are karyotype-dependent, i.e., (1) the potentiation of erythropoiesis in non-del5q erythroid precursors, and (2) selective suppression of del5q clones. To confirm that lenalidomide is selectively cytotoxic to del-5q clones, an AML cell line transformed from an MDS patient with isolated 5q31 deletion was cultivated and the cell line successfully maintained in suspension culture with recombinant myeloid growth factor supplementation. This cell line [designated AML-EH5q] is an AML cell line that harbors the isolated 5q-deletion. […] To evaluate the selectivity of lenalidomide cytotoxic for del5q clones, apoptotic response to lenalidomide and thalidomide was compared in AML-EH5q and U937 (non-del5q) cells by flow cytometry. […] Viability was unaffected at all concentrations for both agents in U937 cells.
(A flow cytometer gives signals particle by particle.)

Assay [1] concerns LR non-del(5q) MDS patients refractory to, or not candidates for, rhEpo. The assay is described as follows: Randomized phase III trial LEN vs LEN+EA. It is filed as in vivo, human. An excerpt: Treatment with rhu-Epo ameliorates anemia in a subset of LR-MDS patients, however, effective salvage therapy is limited. LEN promotes erythroid lineage competence and expansion of primitive erythroid precursors in vitro. In the MDS-002 and MDS-005 trials, treatment with LEN improved erythropoiesis, yielding RBC transfusion-independence in 26% of azanucleoside-naive, transfusion-dependent (TD) LR, non-del(5q) MDS patients for a median of 10.2 and 7.75 months, respectively. LEN restores Epo-responsiveness in MDS progenitors by inducing the formation of lipid rafts enriched for signaling competent JAK2/Epo-receptor complexes with exclusion of large isoforms of the JAK2/lyn kinase-phosphatase CD45 generated by alternative splicing (McGraw K, et. al. PLoS One 2014). […] To test this hypothesis, randomized phase III trial was performed comparing treatment with LEN to LEN+EA in LR non-del(5q) MDS patients who were refractory to, or not candidates for treatment with rhEpo.
Patients with Low or Intermediate-1 (Int-1) risk IPSS MDS with hemoglobin <9.5 g/dL who were unresponsive to rhEpo treatment or were TD (>2 units/mo) with serum Epo >500 mU/mL were eligible for study. Patients were stratified by serum Epo level and prior rhEpo (EA vs. darbepoetin vs. none) then randomized to treatment with LEN 10 mg/d×21d q4 wk (Arm A) or LEN+EA 60,000 U SC/wk (Arm B). Primary endpoint was IWG 2006 major erythroid response (MER) rate after 4 cycles. Arm A non-responders were offered cross-over to combined therapy. Secondary endpoints included analysis of response biomarkers.

Assay [2] deals with azanucleoside-naive, transfusion-dependent LR, non-del(5q) MDS patients. The note with it: cited from earlier work.
Assay [3] relates to MDS patients without 5q deletions. Conditions: cited from earlier work.

The values below come from patent US20220040263A1, “COMPANION DIAGNOSTIC FOR COMBINATION LENALIDOMIDE AND ERYTHROPOIETIN TREATMENT” (H. Lee Moffitt Cancer Center and Research Institute, Inc., priority 2016, published 2022).

SMILES strings stand for the structures. Like-named read-outs stand apart in the source and are kept apart here.

On to `Nc1cccc2c1CN(C1CCC(=O)NC1=O)C2=O` (centres unmarked) [lenalidomide, 3-(4-amino-1-oxo-1,3-dihydro-2H-isoindol-2-yl)piperidine-2,6-dione], for which the “STAT5 DNA binding (nuclear translocation)” value with STAT5 was “greater DNA binding”. Besides, the “increase in phosphorylation of Src Tyr416 compared to the vehicle treated control” value with c-Src (lenalidomide alone) is given as 50%. In the assay with c-Src (lenalidomide combined with EPO, supra-additive), the “Src activation compared to the vehicle control” value was roughly 3 fold. In addition, the “EPO-dependent induction of Bcl-XL” value in the assay with c-Src (lenalidomide pre-treatment) is “augmented”. In the assay on Csk, the “total Csk” value is “decrease”. Besides, the “induction of programmed cell death (apoptosis)” value is listed as “concentration dependent induction of programmed cell death” with AML-EH5q cells and “selectively induced cell death” with AML-EH5q cells (listed as Lenalidomide). Besides, the “MER rate among patients evaluable at week 16” value in assay [1] (116 evaluable patients, P=0.018) is recorded as 14.3%. Moreover, the “major erythroid response (MER) rate, ITT analysis” value in assay [1] (IWG 2006 MER, interim analysis of 163 patients, P=0.015) was determined as 9.9%. For the same compound, in assay [1] (MER responders), the “median duration of response” value was “not reached”. In addition, the RBC transfusion-independence in assay [2] (MDS-002 and MDS-005 trials) is recorded as 26%. Moreover, the figures for the “median duration of RBC transfusion-independence” value in assay [2] (MDS-002 trial) and in assay [2] (MDS-005 trial) were 10.2 months and 7.75 months, respectively. Besides, the “patients who benefit from lenalidomide therapy” value in assay [3] is reported as “Approximately 25%”.
